From patent publication US8696101B2, “Photopolymerizable inkjet black ink, and ink cartridge, inkjet printer and printed material using the ink, and method of preparing the ink” (Ricoh Company, Ltd., priority 2011, dated 2014)

What was measured:
[1] = skin sensitization test (LLNA method), OECD test guide line 429; format: in vivo; details: for Stimulation Index (SI value): photopolymerizable monomers used in clear inks B to K, SI less than 3 = no problem in skin sensitization
Description: The LLNA method is a skin sensitization test specified as OECD test guide line 429, and as shown on page 55 in “Functional Materials” Vol. 25, No. 9 published in September, 2005, the skin sensitization is determined to have no problem when Stimulation Index (SI value) showing a degree of the skin sensitization is less than 3.

[2] = evaluation taken from MSDS; cited from earlier work

## C=CC(=O)OCC(C)(C)COC(=O)C=C [Neopentylglycol diacrylate, reference compound]
[1]; grouping printed in Table 1
  skin sensitization of photopolymerizable monomer (positive / negative grouping): Positive

## γ-butyrolactone methacrylate
[1]
  Stimulation Index (SI value): 2.1

## Caprolactone-modified dipentaerythritolhexaacrylate
[2]
  skin sensitization (from MSDS): Negative skin

## Tricyclodecanedimethanoldimethacrylate
[1]
  Stimulation Index (SI value): 1.3

## Polyethyleneglycol#400 dimethacrylate
[1]
  Stimulation Index (SI value): 1.3

## Caprolactone-modified neopentylglycolhydroxypivalate ester
[1]
  Stimulation Index (SI value): 0.9

## Polyethyleneglycol#600 dimethacrylate
[1]
  Stimulation Index (SI value): 1.6

## Polyethoxylated tetramethylolmethanetetraacrylate
[1]
  Stimulation Index (SI value): 1.7
